According to publication PMC10866072, “Design, synthesis, molecular modelling and biological evaluation of novel 6-amino-5-cyano-2-thiopyrimidine derivatives as potent anticancer agents against leukemia and apoptotic inducers” (Journal of Enzyme Inhibition and Medicinal Chemistry, 2024):

Columns and labels:
A498 = assay type: cell-based; settings: Homo sapiens, one dose 10^-5 M, 48 h
EKVX = assay type: cell-based; settings: Homo sapiens, one dose 10^-5 M, 48 h
NCI-H522 = assay type: cell-based; settings: Homo sapiens, one dose 10^-5 M, 48 h
MDA-MB-231/ATCC = assay type: cell-based; settings: Homo sapiens, one dose 10^-5 M, 48 h
HS 578T = assay type: cell-based; settings: Homo sapiens; one dose 10^-5 M, 48 h; HS 578T; read-out: % growth
M14 = assay type: cell-based; settings: Homo sapiens, one dose 10^-5 M, 48 h
SN12C = assay type: cell-based, human; settings: Homo sapiens, one dose 10^-5 M, 48 h
SK-MEL-28 = assay type: cell-based; settings: Homo sapiens, one dose 10^-5 M, 48 h
NCI-H226 = assay type: cell-based; settings: Homo sapiens, one dose 10^-5 M, 48 h
TK-10 = assay type: cell-based; settings: Homo sapiens, one dose 10^-5 M, 48 h
OVCAR-8 = assay type: cell-based; settings: Homo sapiens, one dose 10^-5 M, 48 h
[1] = system: full NCI 60 cell lines panel
U251 = assay type: cell-based; settings: Homo sapiens, U-251, one dose 10^-5 M, 48 h
SK-OV-3 = assay type: cell-based; settings: Homo sapiens, one dose 10^-5 M, 48 h
MDA-MB-468 = assay type: cell-based; settings: Homo sapiens, one dose 10^-5 M, 48 h
SW-620 = assay type: cell-based; settings: Homo sapiens, one dose 10^-5 M, 48 h
HCT-116 = assay type: cell-based; settings: Homo sapiens, one dose 10^-5 M, 48 h, read-out: % growth
UACC-257 = assay type: cell-based; settings: Homo sapiens, one dose 10^-5 M, 48 h
OVCAR-4 = assay type: cell-based; settings: Homo sapiens, one dose 10^-5 M, 48 h
SF-268 = assay type: cell-based; settings: Homo sapiens, one dose 10^-5 M, 48 h, read-out: % growth
HOP-62 = assay type: cell-based; settings: Homo sapiens, one dose 10^-5 M, 48 h
ACHN = assay type: cell-based; settings: Homo sapiens, one dose 10^-5 M, 48 h
HCC-2998 = assay type: cell-based; settings: Homo sapiens, one dose 10^-5 M, 48 h
MALME-3M = assay type: cell-based; settings: Homo sapiens, one dose 10^-5 M, 48 h
NCI-H460 = assay type: cell-based; settings: Homo sapiens, one dose 10^-5 M, 48 h, read-out: % growth
SF-295 = assay type: cell-based; settings: Homo sapiens, one dose 10^-5 M, 48 h
HL-60(TB) = assay type: cell-based; settings: Homo sapiens, one dose 10^-5 M, 48 h
K-562 = assay type: cell-based; settings: Homo sapiens, K562, one dose 10^-5 M, 48 h
LOX IMVI = assay type: cell-based; settings: Homo sapiens, one dose 10^-5 M, 48 h, read-out: % growth
MOLT-4 = assay type: cell-based; settings: Homo sapiens, one dose 10^-5 M, 48 h, read-out: % growth
OVCAR-5 = assay type: cell-based; settings: Homo sapiens, one dose 10^-5 M, 48 h
SK-MEL-5 = assay type: cell-based; settings: Homo sapiens, one dose 10^-5 M, 48 h, read-out: % growth
NCI-H23 = assay type: cell-based; settings: Homo sapiens, one dose 10^-5 M, 48 h, read-out: % growth
HOP-92 = assay type: cell-based; settings: Homo sapiens, one dose 10^-5 M, 48 h
PC-3 = assay type: cell-based; settings: Homo sapiens, one dose 10^-5 M, 48 h
CAKI-1 = assay type: cell-based; settings: Homo sapiens, CAKI-1, 48 h, one dose 10^-5 M, 48 h
UACC-62 = assay type: cell-based; settings: Homo sapiens, one dose 10^-5 M, 48 h
RXF 393 = assay type: cell-based; settings: Homo sapiens, RXF 393, 48 h, one dose 10^-5 M, 48 h, read-out: % growth
DU-145 = assay type: cell-based; settings: Homo sapiens, one dose 10^-5 M, 48 h
RPMI-8226 = assay type: cell-based; settings: Homo sapiens, one dose 10^-5 M, 48 h
IGROV1 = assay type: cell-based; settings: Homo sapiens, IGROV-1, one dose 10^-5 M, 48 h, read-out: % growth
MCF7 = assay type: cell-based; settings: Homo sapiens, one dose 10^-5 M, 48 h, read-out: % growth
T-47D = assay type: cell-based; settings: Homo sapiens, T47D, one dose 10^-5 M, 48 h, read-out: % growth
HT29 = assay type: cell-based; settings: Homo sapiens, HT-29, one dose 10^-5 M, 48 h
786-0 = assay type: cell-based; settings: Homo sapiens, one dose 10^-5 M, 48 h
SR = assay type: cell-based; settings: Homo sapiens, one dose 10^-5 M, 48 h
KM12 = assay type: cell-based; settings: Homo sapiens, one dose 10^-5 M, 48 h
SNB-19 = assay type: cell-based; settings: Homo sapiens, one dose 10^-5 M, 48 h, read-out: % growth
SF-539 = assay type: cell-based; settings: Homo sapiens, one dose 10^-5 M, 48 h
OVCAR-3 = assay type: cell-based; settings: Homo sapiens, one dose 10^-5 M, 48 h
A549/ATCC = assay type: cell-based; settings: Homo sapiens, one dose 10^-5 M, 48 h
HCT-15 = assay type: cell-based; settings: Homo sapiens, one dose 10^-5 M, 48 h, read-out: % growth
UO-31 = assay type: cell-based; settings: Homo sapiens, UO-31, 48 h, one dose 10^-5 M, 48 h
CCRF-CEM = assay type: cell-based; settings: Homo sapiens, one dose 10^-5 M, 48 h
SK-MEL-2 = assay type: cell-based; settings: Homo sapiens, one dose 10^-5 M, 48 h
MDA-MB-435 = assay type: cell-based; settings: Homo sapiens, one dose 10^-5 M, 48 h, read-out: % growth
SNB-75 = assay type: cell-based; settings: Homo sapiens, one dose 10^-5 M, 48 h

## COc1ccc(C=NNC(=N)c2c(N)nc(S)nc2-c2ccc(Cl)cc2)cc1 [Compound 4j, 4-amino-6–(4-chlorophenyl)-2-mercapto-N'-[(4-methoxyphenyl)methylene] pyrimidine-5-carboximidohydrazide]
A498
  % growth at 10 µM: 125%
EKVX
  % cell growth at 10 µM: 94.8%
NCI-H522
  % growth at 10 µM: 101%
MDA-MB-231/ATCC
  % growth at 10 µM: 91.3%
HS 578T
  activity at 10 µM: 107%
M14
  % growth at 10 µM: 109%
SN12C
  % growth at 10 µM: 93.6%
SK-MEL-28
  % cell growth at 10 µM: 111%
NCI-H226
  % growth at 10 µM: 125%
TK-10
  % cell growth at 10 µM: 143%
OVCAR-8
  % growth of cells at 10 µM: 101%
[1]; Homo sapiens, 60 cell, 48 h, read-out: Mean % growth
  activity at 10 µM: 103%
[1]; one dose
  activity on all 60 cancer cell lines tested (in words): weak activity
U251
  % growth at 10 µM: 107%
SK-OV-3
  % growth at 10 µM: 93.7%
MDA-MB-468
  percent cell growth at 10 µM: 114%
SW-620
  % growth at 10 µM: 112%
HCT-116
  activity at 10 µM: 107%
UACC-257
  percent cell growth at 10 µM: 110%
OVCAR-4
  % growth at 10 µM: 99.6%
SF-268
  activity at 10 µM: 113%
HOP-62
  % growth at 10 µM: 90.3%
ACHN
  % growth at 10 µM: 97.4%
HCC-2998
  % growth at 10 µM: 113%
MALME-3M
  % growth at 10 µM: 105%
NCI-H460
  activity at 10 µM: 119%
SF-295
  % cell growth at 10 µM: 97.5%
HL-60(TB)
  % growth at 10 µM: 111%
K-562
  % growth at 10 µM: 95%
LOX IMVI
  activity at 10 µM: 104%
MOLT-4
  activity at 10 µM: 101%
OVCAR-5
  percent cell growth at 10 µM: 102%
SK-MEL-5
  activity at 10 µM: 102%
NCI-H23
  activity at 10 µM: 103%
HOP-92
  % growth at 10 µM: 107%
PC-3
  percent cell growth at 10 µM: 82.6%
CAKI-1
  % growth at 10 µM: 91.9%
UACC-62
  % growth at 10 µM: 92.9%
RXF 393
  activity at 10 µM: 124%
DU-145
  % growth at 10 µM: 118%
RPMI-8226
  % growth at 10 µM: 91.2%
IGROV1
  activity at 10 µM: 91.5%
MCF7
  activity at 10 µM: 86.6%
T-47D
  activity at 10 µM: 86.8%
HT29
  % growth at 10 µM: 105%
786-0
  % growth at 10 µM: 104%
SR
  percent cell growth at 10 µM: 97.3%
KM12
  % growth at 10 µM: 100%
SNB-19
  activity at 10 µM: 90.5%
SF-539
  % growth at 10 µM: 101%
OVCAR-3
  % growth at 10 µM: 110%
A549/ATCC
  % growth at 10 µM: 107%
HCT-15
  activity at 10 µM: 95.6%
UO-31
  % cell growth at 10 µM: 77.5%
CCRF-CEM
  % cell growth at 10 µM: 89.7%
SK-MEL-2
  % growth at 10 µM: 110%
MDA-MB-435
  activity at 10 µM: 104%
SNB-75
  % growth at 10 µM: 103%
